This note sets out measurements from patent US7595294B2, “Vasoactive intestinal polypeptide pharmaceuticals” (Transition Therapeutics, Inc., priority 2004, dated 2009).

One experiment relates to db/db mice. Kind of experiment: In vivo bioassay: blood glucose in db/db mice after intraperitoneal injection. The note with it: for Mean Blood Glucose Levels: i.p.; for Activity (reduced plasma glucose), in words: high dose. Here is the method: Tested Study Groups. Naïve, 8 weeks old female db/db mice were acclimated for one week, during which period animals were handled periodically to allow them to be acclimated to experiment procedures. Study groups contained 6 mice per group and were administered with one of the following by intraperitoneal injection:
(2) Positive control (exendin-4 or other standard treatment);
(3) Polypeptide Analog at high dose; or
(4) Polypeptide Analog at low dose.
A small volume of blood was taken from a cut at the tip of tail for blood sampling. Blood glucose levels were determined on a commercial, hand-held glucose meter. On Day 1, animals were injected with polypeptide analogs and controls in the morning. Blood samples were taken and analyzed immediately before injection and at 2, 4, 8, 14, and 24 hours after injection. Animals were allowed to feed, ad libitem, throughout the assay (Tsutsumi et al., Diabetes 51:1453-60 (2002)).

For a further experiment, the system named is Rat islets. Kind of experiment: In vitro bioassay with islet cell static cultures (insulin secretion, ELISA). The format is cell-based. The settings on record: for Insulin secreted: Table 2, 120 min incubation; for Concentration at which maximal activity was exhibited in the assay: islet static culture, insulin secretion; for Average Insulin secreted: Table 3. Here is the method: Islet isolation. […] Generally, the islets were prepared by injecting collagenase (10 mL of 0.23 mg/mL Liberase, Roche Molecular Biochemicals, Indianapolis, Ind.) into the pancreatic duct of the partially dissected pancreas and surgically removing it. All procedures were approved by the Institutional Animal Care and Use Committee at the University of Washington.
The pancreata were placed into 15 mL conical tubes containing 5 mL of 0.23 mg/mL Liberase and incubated at 37° C. for 30 min. The digestate was then filtered through a 400-micrometer stainless steel screen, rinsed with Hanks' buffered salt solution, and purified in a gradient solution of Optiprep (Nycomed, Oslo, Norway).
Bioassay. Islets were picked under a microscope and placed into 10 ml 3 mM Krebs Ringer Buffer (KRB) solution for washing. Islets were incubated in 3 mM glucose KRB for 60 min and then groups of 10 islets per well were placed into 200 μl media in a 96-well plate. […] The buffer conditions were KRB with 0.1% BSA, 20 mM HEPES and the assay was performed in quadruplicate. Supernatants were evaluated for insulin content using a commercial insulin enzyme-linked immunosorbent (ELISA) assay per manufacturer's directions.

The mark [1] stands for this setting: High dose, 0 hr (immediately before injection).
Where [2] appears, read: High dose, 2 hr after injection.
[3] abbreviates: High dose, 4 hr after injection.
Where [4] appears, read: High dose, 8 hr after injection.
[5] abbreviates: High dose, 14 hr after injection.
The mark [6] stands for this setting: High dose, 24 hr after injection.
Setting [7] is: Low dose, 0 hr (immediately before injection).
The mark [8] stands for this setting: Low dose, 14 hr after injection.
[9] abbreviates: Low dose, 24 hr after injection.

Where no end group is shown, it is not given here.

Consider “TP-103: exemplary synthetic polypeptide analog of PACAP/VIP, amino acid sequence SEQ ID NO: 2 (HSDAVFTDNYTRLRKQVAAKKYLNSIKKGKRELLEKLLRKLK; ends and bridges not checked)”, for which the “Mean Blood Glucose Levels” value in the experiment with db/db mice (setting [1]) is recorded as 20.7 mmol/L; in the experiment on db/db mice (setting [2]), 17.3 mmol/L; with db/db mice (setting [3]), 16.9 mmol/L; in the experiment on db/db mice (setting [4]), 23.4 mmol/L; in the experiment on db/db mice (setting [5]), 23.7 mmol/L; in the experiment with db/db mice (setting [6]), 25.0 mmol/L. Moreover, the “Mean Blood Glucose Levels” value in the experiment with db/db mice (setting [7]) is reported as 22.9 mmol/L; with db/db mice (Low dose, 2 hr after injection), 20.5 mmol/L; in the experiment on db/db mice (Low dose, 4 hr after injection) it was 17.6 mmol/L; in the experiment with db/db mice (Low dose, 8 hr after injection) it was 26.4 mmol/L; in the experiment with db/db mice (setting [8]) it was 24.6 mmol/L; in the experiment with db/db mice (setting [9]) it was 21.4 mmol/L.

Take “TP-106: highly hydrophobic polypeptide analog, designed to depot in the site of sc injection; SEQ ID NO: 5 (HSDAVFTDNYTRLRKQVAAKKYLNSIKKGKRELLEKLK)”: the Insulin secreted is recorded as 2.72 ng/100 islets/min in the experiment with Rat islets (50 nM peptide + 16 mM glucose) and 5.20 ng/100 islets/min with Rat islets (200 nM peptide + 16 mM glucose). Besides, the “Concentration at which maximal activity was exhibited in the assay” value with Rat islets was determined as 200 nM. Also, the “Mean Blood Glucose Levels” value was determined as 21.8 mmol/L in the experiment with db/db mice (setting [1]); 13.4 mmol/L with db/db mice (setting [2]); 14.7 mmol/L in the experiment with db/db mice (setting [3]); 25.1 mmol/L in the experiment on db/db mice (setting [4]); 26.3 mmol/L with db/db mice (setting [5]); 21.2 mmol/L with db/db mice (setting [6]). Moreover, the “Mean Blood Glucose Levels” value in the experiment with db/db mice (setting [7]) amounted to 23.9 mmol/L; with db/db mice (Low dose, 2 hr after injection) it was 20.5 mmol/L; in the experiment with db/db mice (Low dose, 4 hr after injection), 16.1 mmol/L; in the experiment on db/db mice (Low dose, 8 hr after injection), 24.0 mmol/L; with db/db mice (setting [8]), 28.2 mmol/L; with db/db mice (setting [9]), 23.2 mmol/L. Further, the “Activity (reduced plasma glucose), in words” value is reported as “statistically significant activity” with db/db mice (2 hr after injection) and “maintains activity” with db/db mice (4 hrs post dosing).

For “TP-107: exemplary synthetic polypeptide analog of PACAP/VIP, amino acid sequence SEQ ID NO: 6 (HSDAVFTDNYTRLRKQVAAKKYLNWIKKAKRELLEKLK; ends and bridges not checked)”, the results for the “Average Insulin secreted” value with Rat islets (10 nM peptide + 16 mM glucose), in the experiment on Rat islets (100 nM peptide + 16 mM glucose) and with Rat islets (1 uM peptide + 16 mM glucose) were 2.89 ng/100 islets/min, 6.10 ng/100 islets/min and 6.07 ng/100 islets/min, respectively. The “Concentration at which maximal activity was exhibited in the assay” value with Rat islets stood at 100 nM.

As to “TP-108: exemplary synthetic polypeptide analog of PACAP/VIP, amino acid sequence SEQ ID NO: 7 (HSDAVFTDNYTRLRKQLAAKKYLNSIKKGKRLLRKLQPPPK; ends and bridges not checked)”, the “Average Insulin secreted” value with Rat islets (100 nM peptide + 16 mM glucose) stood at 4.10 ng/100 islets/min; in the experiment on Rat islets (1 uM peptide + 16 mM glucose), 5.65 ng/100 islets/min.
